# Assays:
# Format in all cases: in vivo, SD rats
# [1] = system: hyperglycemic model subjected to temporary middle cerebral artery occlusion (tMCAO); assay: Hyperglycemic (STZ) rat 30-minute tMCAO cerebral ischemia model: body weight, mNSS test, brain injury (cresyl violet); conditions: 30 min MCAO, 10 mg/kg i.p. once a day
# Procedure: (§1) Specifically, these were carried out as follows. To produce an experimental animal model, 7-week-old male SD rats were fasted for 16 hours. Thereafter, streptozotocin (STZ) was administered to the rats, and after 3 days, fasting blood glucose levels were measured in the tail vein, and only animals with a blood glucose level of 300 mg/dl or more were used as a hyperglycemic model. A cerebral ischemia model was produced by subjecting the produced hyperglycemic model or a normoglycemic model to temporary middle cerebral artery occlusion (tMCAO). For MCAO, a coated suture was inserted through the right external carotid artery into the internal carotid artery, and inserted approximately 19 mm up to the middle cerebral artery (MCA). 30 minutes or 2 hours after insertion, the coated suture was removed, and a reperfusion model was used as a cerebral ischemia model. […] The normoglycemic group (NG), after 2 hours of MCAO, was divided into a vehicle group and an FPS-ZM1 group and used in the experiment. The hyperglycemic group (HG), after 30 minutes of MCAO, was divided into a vehicle group and an FPS-ZM1 group and used in the experiment. The FPS-ZM1 group in each of the normoglycemic group and the hyperglycemic group was injected intraperitoneally with 10 mg/kg of FPS-ZM1 within 5 minutes after MCAO reperfusion and injected with FPS-ZM1 once a day. After surgery, the mNSS (modified neurological severity score) test shown in FIG. 9 and weight measurement were conducted at a certain time every day to check body weight changes and neurobehavioral deficits of the experimental animals. In addition, rats were sacrificed 3 days after MCAO, and plasma and brain tissue were collected and analyzed.
# (§2) After performing MCAO, body weight measurement and the mNSS test were performed at the same time every day.
# (§3) To evaluate brain injury, the volume of cerebral infarction was determined by staining the entire brain with cresyl violet at 1-mm intervals.
# [2] = system: ZO-1, occludin, claudin, Tie-2, VEGF, Ang-1, MMP-2, MMP-9; assay: Real-time PCR of vascular-related factors in brain tissue after tMCAO; conditions: 10 mg/kg i.p., FIG. 5
# Procedure: as §1, with “The FPS-ZM1 group in each of the normoglycemic group and the hyperglycemic group was injected intraperitoneally with 10 mg/kg of FPS-ZM1 within 5 minutes after MCAO reperfusion and injected with FPS-ZM1 once a day. After surgery, the mNSS (modified neurological severity score) test shown in FIG. 9 and weight measurement were conducted at a certain time every day to check body weight changes and neurobehavioral deficits of the experimental animals.” left out
# [3] = system: RAGE, AGE, methylglyoxal (MGH1), GFAP; assay: Western blot analysis of protein expression in brain tissue, hyperglycemic tMCAO group; conditions: HG, 30 min MCAO, 10 mg/kg i.p.
# Procedure: as §1, with “analyzed. After all experiments were completed, the protein expression levels of RAGE, AGE, and methylglyoxal (MGH1) in the brain tissue from each experimental group were analyzed by Western blot analysis. For comparison, protein expression in the brain tissue from normal rats (sham) was used as a control.” for “analyzed.”
# [4] = system: normoglycemic model subjected to temporary middle cerebral artery occlusion (tMCAO); assay: Normoglycemic rat 2-hour tMCAO cerebral ischemia model: body weight, brain injury (cresyl violet); conditions: 2 h MCAO, 10 mg/kg i.p. once a day
# Procedure: as §1, §2, §3
# [5] = system: neuronal cell death in the cerebral cortex; assay: Cresyl violet staining of cerebral cortex, normoglycemic tMCAO group; conditions: NG, 2 h MCAO; 10 mg/kg i.p.; vs sham group; FIG. 4
# Procedure: Specifically, these were carried out as follows. To produce an experimental animal model, 7-week-old male SD rats were fasted for 16 hours. Thereafter, streptozotocin (STZ) was administered to the rats, and after 3 days, fasting blood glucose levels were measured in the tail vein, and only animals with a blood glucose level of 300 mg/dl or more were used as a hyperglycemic model. A cerebral ischemia model was produced by subjecting the produced hyperglycemic model or a normoglycemic model to temporary middle cerebral artery occlusion (tMCAO). For MCAO, a coated suture was inserted through the right external carotid artery into the internal carotid artery, and inserted approximately 19 mm up to the middle cerebral artery (MCA). 30 minutes or 2 hours after insertion, the coated suture was removed, and a reperfusion model was used as a cerebral ischemia model. Since cerebral infarction was rarely found in normoglycemic animals after 30-minute MCAO, a model subjected to 2 hours of MCAO was used and compared with the hyperglycemic group. […] In addition, rats were sacrificed 3 days after MCAO, and plasma and brain tissue were collected and analyzed.
# The degree of neuronal cell death in the cerebral cortex from each experimental group was analyzed using cresyl violet staining. […]
# [6] = system: RAGE, AGE, methylglyoxal (MGH1); assay: Western blot analysis of protein expression in brain tissue, normoglycemic tMCAO group; conditions: NG, 2 h MCAO, 10 mg/kg i.p.
# Procedure: as §1, with “analyzed. After all experiments were completed, the protein expression levels of RAGE, AGE, and methylglyoxal (MGH1) in the brain tissue from each experimental group were analyzed by Western blot analysis. For comparison, protein expression in the brain tissue from normal rats (sham) was used as a control.” for “analyzed.”
# [7] = system: neuronal cell death, astrocytes and microglia, AGE and MGH1 in the cerebral cortex; assay: Cresyl violet and immunohistochemical staining of cerebral cortex, hyperglycemic tMCAO group; conditions: HG, 30 min MCAO; 10 mg/kg i.p.; FIG. 4
# Procedure: Specifically, these were carried out as follows. To produce an experimental animal model, 7-week-old male SD rats were fasted for 16 hours. Thereafter, streptozotocin (STZ) was administered to the rats, and after 3 days, fasting blood glucose levels were measured in the tail vein, and only animals with a blood glucose level of 300 mg/dl or more were used as a hyperglycemic model. A cerebral ischemia model was produced by subjecting the produced hyperglycemic model or a normoglycemic model to temporary middle cerebral artery occlusion (tMCAO). For MCAO, a coated suture was inserted through the right external carotid artery into the internal carotid artery, and inserted approximately 19 mm up to the middle cerebral artery (MCA). 30 minutes or 2 hours after insertion, the coated suture was removed, and a reperfusion model was used as a cerebral ischemia model. Since cerebral infarction was rarely found in normoglycemic animals after 30-minute MCAO, a model subjected to 2 hours of MCAO was used and compared with the hyperglycemic group. The normoglycemic group (NG), after 2 hours of MCAO, was divided into a vehicle group and an FPS-ZM1 group and used in the experiment. The hyperglycemic group (HG), after 30 minutes of MCAO, was divided into a vehicle group and an FPS-ZM1 group and used in the experiment. The FPS-ZM1 group in each of the normoglycemic group and the hyperglycemic group was injected intraperitoneally with 10 mg/kg of FPS-ZM1 within 5 minutes after MCAO reperfusion and injected with FPS-ZM1 once a day. After surgery, the mNSS (modified neurological severity score) test shown in FIG. 9 and weight measurement were conducted at a certain time every day to check body weight changes and neurobehavioral deficits of the experimental animals. In addition, rats were sacrificed 3 days after MCAO, and plasma and brain tissue were collected and analyzed.
# The degree of neuronal cell death in the cerebral cortex from each experimental group was analyzed using cresyl violet staining. In addition, immunohistochemistry was used to analyze the level of activity of astrocytes and microglia and the expression levels of AGE and MGH1 in the cells.
# MGH1 = MGH1 expression in brain tissue of diabetic tMCAO groups by immunohistochemical staining and Western blot; conditions: diabetic rats, day 1 after MCAO; 100 mg/kg orally once a day from day 4; vs vehicle group; FIG. 8
# Procedure: (§4) Specifically, these were carried out as follows. To produce an experimental animal model of diabetes mellitus (DM), 7-week-old male SD rats were fasted for 16 hours. Thereafter, streptozotocin (STZ) was administered to the rats, and on day 3, blood glucose levels were measured. The rats were divided into a vehicle group and an aminoguanidine (AG) group, which had similar average blood glucose levels, and were maintained for 34 days. The AG group was orally administered 100 mg/kg of aminoguanidine once a day starting from day 4 after diabetes induction, and was finally administered aminoguanidine within 30 minutes after MCAO. On day 1 after MCAO, the mNSS test shown in FIG. 9 was performed, and then cerebral infarction was checked using an animal MRI system. Next, the rats were sacrificed, and plasma and brain tissue were collected and analyzed. For comparison, protein expression in the brain tissue from normal rats (sham) was used as a control.
# Day 1 after MCAO, the expression levels of MGH1 in the brain tissues from the diabetic groups were analyzed by immunohistochemical staining and Western blot analysis.
# [8] = system: experimental animal model of diabetes mellitus (DM) subjected to tMCAO; assay: Diabetic (STZ, 34 days) rat 30-minute tMCAO model: body weight, blood glucose, glycated hemoglobin, brain injury by MRI; conditions: diabetic rats, vs DM-vehicle
# Procedure: as §4, with “control. The impact on diabetes was evaluated by checking changes in body weight and blood glucose levels once a week after diabetes induction and checking final glycated hemoglobin levels after MCAO. To evaluate brain injury, the volume of cerebral infarction was determined using an animal MRI system.” for “control.”
# [9] = HG, 3 days after MCAO, vs HG-vehicle, cresyl violet
# [10] = NG, 3 days after MCAO, vs NG-vehicle
smiles,measurement,setting,value
O=C(c1ccc(Cl)cc1)N(Cc1ccccc1)C1CCCCC1 [FPS-ZM1],cross-sectional area of injury,[1]; [9],significantly decreased
same,volume of actual injury,[1]; [9],more significant in the HG-FPS-ZM1 group than in the HG-vehicle group
same,mNSS score,"[1]; HG, vs the other MCAO groups, FIG. 1C",significantly lower than those in the other groups
same,body weight change after MCAO,"[1]; hyperglycemic group (HG), vs initial body weight before MCAO, FIG. 1B",no reduction in body weight
same,expression level of MMP-9 in brain tissue (real-time PCR),"[2]; HG, 30 min MCAO, vs HG-vehicle",significantly decreased in the HG-FPS-ZM1 group to a level similar to that in the sham group
same,expression levels of most vascular-related factors in brain tissue (real-time PCR),[2]; HG-FPS-ZM1 group compared to NG-FPS-ZM1 group,"increased in the HG-FPS-ZM1 group compared to the NG-FPS-ZM1 group, but there was no significant difference between the groups"
same,MGH1 protein expression level in brain tissue (Western blot),"[3]; between all groups, FIG. 3",no significant difference
same,AGE expression level in brain tissue (Western blot),[3]; vs HG-vehicle,significantly lower
same,GFAP expression level in brain tissue (Western blot),[3]; vs HG-vehicle,significantly lower
same,cross-sectional area of injury,[4]; [10],difficult through the area photographs to confirm the degree of reduction
same,overall injury volume,[4]; [10],"decreased slightly in the NG-FPS-ZM1 group, but this decrease was not significant"
same,body weight change after MCAO,"[4]; normoglycemic group (NG), vs initial body weight before MCAO, FIG. 1B",decreased compared to the initial body weight
same,degree of neuronal cell death in cerebral cortex (cresyl violet staining),[5],higher
same,MGH1 protein expression level in brain tissue (Western blot),"[6]; between all groups, FIG. 3",no significant difference
same,AGE expression level in brain tissue (Western blot),[6]; vs NG-vehicle,no significant difference
same,RAGE expression level in brain tissue (Western blot),[6]; vs NG-vehicle,no significant difference
same,activated astrocytes (GFAP staining),[7],less observed
same,intracellular AGE staining,[7],less observed
same,intracellular MGH1 staining,[7],less observed
same,neuronal cell death / number of live cells in cerebral cortex (cresyl violet staining),[7],the number of live cells was larger
"N=C(N)NN [AG, aminoguanidine]",expression level of MGH1 in brain tissue (immunohistochemical staining and Western blot),MGH1,decreased
same,"brain injury (volume of cerebral infarction, animal MRI)","[8]; 30 min MCAO on day 34, 100 mg/kg orally once a day from day 4, day 1 after MCAO",no significant difference
same,glycated hemoglobin level,"[8]; 100 mg/kg orally once a day from day 4, after MCAO",no significant difference
same,blood glucose level,[8]; 100 mg/kg orally once a day from day 4,no significant difference
same,change in body weight,[8]; 100 mg/kg orally once a day from day 4 after diabetes induction,not significantly different
